Measured values from paper PMC9022596, “Convergent Evolution of Antibiotic Tolerance in Patients with Persistent Methicillin-Resistant Staphylococcus aureus Bacteremia” (Infection and Immunity, 2022).

How the values were obtained:
Test in all cases: microbe, parasite or virus in culture
Set-up in all cases: Broth microdilution MIC in cation-adjusted MHB-Ca2+, growth inhibition per EUCAST reading
[1] = test system: T1, Staphylococcus aureus PB1505; conditions: PB1505, 16 h
T1 construct: PB1505
Description: (§1) MICs were measured in cation-adjusted Mueller-Hinton broth (MHB) supplemented with 50 μg/mL CaCl2 (MHB-Ca^2+) via broth microdilution in 96-well plates with an inoculum of ∼5 × 10^5 CFU per mL. Antibiotic test concentrations ranged from 0.0625 μg/mL to 32 μg/mL by 2-fold dilutions. Plates were incubated at 37°C for 16 h without shaking, and results were interpreted in accordance with European Committee on Antimicrobial Susceptibility Testing reading guidelines ([72]). S. aureus ATCC 29213 was used as a quality-control strain. TCA cycle defects have been shown previously to cause antibiotic tolerance in laboratory strains of methicillin-sensitive S. aureus (MSSA) ([13], [16]). […] To test this hypothesis, we complemented three of the clinical isolates harboring loss-of-function citZ mutations with either wild-type citZ (pOS1-citZ) or empty vector (pOS1) and then measured bacterial survival through time after exposure to ceftaroline, daptomycin, vancomycin, or the combination of daptomycin plus ceftaroline (Fig. 3). These antibiotics were chosen for their clinical relevance in the treatment of severe MRSA infection.

[2] = test system: T2, Staphylococcus aureus PB0801; conditions: PB0801, 16 h
T2 construct: PB0801
Description: as §1

[3] = test system: T3, Staphylococcus aureus PB0112; conditions: PB0112, 16 h
T3 construct: PB0112
Description: as §1

[4] = test system: T4, Staphylococcus aureus PB0412; conditions: PB0412, 16 h
T4 construct: PB0412
Description: as §1

[5] = test system: T5, Staphylococcus aureus PB0203; conditions: PB0203, 16 h
T5 construct: PB0203
Description: as §1

[6] = test system: T6, Staphylococcus aureus PB1509; conditions: PB1509, 16 h
T6 construct: PB1509
Description: as §1

[7] = test system: T7, Staphylococcus aureus PB0704; conditions: PB0704, 16 h
T7 construct: PB0704
Description: as §1

[8] = test system: T8, Staphylococcus aureus PB1408; conditions: PB1408, 16 h
T8 construct: PB1408
Description: as §1

[9] = test system: T9, Staphylococcus aureus PB0803; conditions: PB0803, 16 h
T9 construct: PB0803
Description: as §1

[10] = test system: T10, Staphylococcus aureus PB1103; conditions: PB1103, 16 h
T10 construct: PB1103
Description: as §1

[11] = test system: T11, Staphylococcus aureus PB0609; conditions: PB0609, 16 h
T11 construct: PB0609
Description: as §1

Compound	MIC ([1]; replicate 1) [µg/mL]	MIC ([1]; replicate 2) [µg/mL]	MIC ([2]; replicate 1) [µg/mL]	MIC ([2]; replicate 2) [µg/mL]	MIC ([3]; replicate 1) [µg/mL]	MIC ([3]; replicate 2) [µg/mL]	MIC ([4]; replicate 1) [µg/mL]	MIC ([4]; replicate 2) [µg/mL]	MIC ([5]; replicate 1) [µg/mL]	MIC ([5]; replicate 2) [µg/mL]	MIC ([6]; replicate 1) [µg/mL]	MIC ([6]; replicate 2) [µg/mL]	MIC ([7]; replicate 1) [µg/mL]	MIC ([7]; replicate 2) [µg/mL]	MIC ([8]; replicate 1) [µg/mL]	MIC ([8]; replicate 2) [µg/mL]	MIC ([9]; replicate 1) [µg/mL]	MIC ([9]; replicate 2) [µg/mL]	MIC ([10]; replicate 1) [µg/mL]	MIC ([10]; replicate 2) [µg/mL]	further results
CCCCCCCCCC(=O)N[C@@H](Cc1c[nH]c2ccccc12)C(=O)N[C@H](CC(N)=O)C(=O)N[C@@H](CC(=O)O)C(=O)N[C@@H]1C(=O)NCC(=O)N[C@@H](CCCN)C(=O)N[C@@H](CC(=O)O)C(=O)N[C@H](C)C(=O)N[C@@H](CC(=O)O)C(=O)NCC(=O)N[C@H](CO)C(=O)N[C@@H]([C@H](C)CC(=O)O)C(=O)N[C@@H](CC(=O)c2ccccc2N)C(=O)O[C@@H]1C [Daptomycin]	1	2	1	1	1	1	2	2	1	1	2	2	1	1	2	2	2	2	1	1	MIC ([11]; replicate 1): 1 µg/mL; MIC ([11]; replicate 2): 1 µg/mL
CCO/N=C(\C(=O)N[C@@H]1C(=O)N2C(C(=O)[O-])=C(Sc3nc(-c4cc[n+](C)cc4)cs3)CS[C@H]12)c1nsc(N)n1 [Ceftaroline]	0.5	0.5	0.5	0.5	0.5	0.5	0.5	0.5	0.5	0.5	0.5	0.5	0.25	0.25	0.5	0.5	0.5	0.5	0.5	0.5	MIC ([11]; replicate 1): 0.25 µg/mL; MIC ([11]; replicate 2): 0.25 µg/mL
CC(=O)NC[C@H]1CN(c2ccc(N3CCOCC3)c(F)c2)C(=O)O1 [Linezolid]	4	4	4	4	4	4	4	4	4	4	4	4	4	4	4	4	4	4	4	4	MIC ([11]; replicate 1): 4 µg/mL; MIC ([11]; replicate 2): 4 µg/mL
CN[C@H](CC(C)C)C(=O)N[C@H]1C(=O)N[C@@H](CC(N)=O)C(=O)N[C@H]2C(=O)N[C@H]3C(=O)N[C@H](C(=O)N[C@H](C(=O)O)c4cc(O)cc(O)c4-c4cc3ccc4O)[C@H](O)c3ccc(c(Cl)c3)Oc3cc2cc(c3O[C@@H]2O[C@H](CO)[C@@H](O)[C@H](O)[C@H]2O[C@H]2C[C@](C)(N)[C@H](O)[C@H](C)O2)Oc2ccc(cc2Cl)[C@H]1O [Vancomycin]	2	2	2	2	2	2	2	2	2	2	2	2	2	2	4	4	2	2	2	2	MIC ([11]; replicate 1): 2 µg/mL; MIC ([11]; replicate 2): 4 µg/mL
